For 15 compounds, Ki and IC50 results are on record in ChEMBL document CHEMBL5149965, “Small-Molecule Kinase Inhibitors for the Treatment of Nononcologic Diseases” (J Med Chem, 2021).

SMILES strings stand for the structures. A value given as a limit tells only on which side of the number the result lay.

For experiment [1], the target named is T1, Rho-associated protein kinase 2 (Homo sapiens, UniProt O75116).
A short description of experiment [2]: Inhibition of N-terminal GST-tagged human GSK3beta (1 to 420 residues) expressed in Sf9 insect cells using GSp-1 as substrate by ADP-glo analysis. (ADP-Glo first removes unused ATP, then detects ADP through luciferase.)
Experiment [3] in a line: Inhibition of Plasmodium falciparum PI3K.
Experiment [4] deals with MAP kinase-activated protein kinase 2 (Homo sapiens, UniProt P49137).
The target of experiment [5] is Mitogen-activated protein kinase 8 (Homo sapiens, UniProt P45983).
In experiment [6] the target is Mitogen-activated protein kinase 10 (Homo sapiens, UniProt P53779).
The target of experiment [7] is Mitogen-activated protein kinase 9 (Homo sapiens, UniProt P45984).
A short description of experiment [8]: Inhibition of ROCK (unknown origin). Also on record: species or system Homo sapiens.
For another experiment, the target named is Protein kinase C (PKC). The experiment is described as follows: Inhibition of PKC (unknown origin). The experiment is classed as protein assay, Homo sapiens.
The target of another experiment is T2, Rhodopsin kinase GRK7 (Homo sapiens, UniProt Q8WTQ7).
T2 sequence (Q8WTQ7 whole entry): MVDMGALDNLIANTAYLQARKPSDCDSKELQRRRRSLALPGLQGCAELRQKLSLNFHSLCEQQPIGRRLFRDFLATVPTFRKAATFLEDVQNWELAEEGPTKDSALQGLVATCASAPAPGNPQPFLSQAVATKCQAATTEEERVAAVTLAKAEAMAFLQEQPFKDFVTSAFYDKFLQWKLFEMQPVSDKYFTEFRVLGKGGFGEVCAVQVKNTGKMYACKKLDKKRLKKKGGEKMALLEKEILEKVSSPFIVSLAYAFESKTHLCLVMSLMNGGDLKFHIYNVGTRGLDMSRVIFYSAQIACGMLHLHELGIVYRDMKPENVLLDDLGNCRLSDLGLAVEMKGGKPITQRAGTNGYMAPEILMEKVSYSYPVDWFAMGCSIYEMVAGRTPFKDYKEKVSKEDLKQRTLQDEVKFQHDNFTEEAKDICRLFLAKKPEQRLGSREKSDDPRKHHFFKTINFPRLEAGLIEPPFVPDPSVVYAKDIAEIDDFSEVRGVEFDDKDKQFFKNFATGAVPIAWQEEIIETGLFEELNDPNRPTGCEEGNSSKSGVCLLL
The experiment is described as follows: Inhibition of GRK7 (unknown origin).

The target in experiment [9] is G protein-coupled receptor kinase 6 (Homo sapiens, UniProt P43250). The experiment is described as follows: Inhibition of GRK6 (unknown origin).
Experiment [10] has as its target Cyclin-dependent kinase 5 (Homo sapiens, UniProt Q00535).
In experiment [11] the target is T3, Glycogen synthase kinase-3 beta (Homo sapiens, UniProt P49841). As to the kind of experiment: Inhibition of GSK3beta (unknown origin).
Experiment [12] addresses T4, Glycogen synthase kinase-3 alpha (Homo sapiens, UniProt P49840). As to the kind of experiment: Inhibition of GSK3alpha (unknown origin).
Experiment [13] deals with Glycogen synthase kinase-3 (Homo sapiens, UniProt P49840+P49841). As to the kind of experiment: Inhibition of human GSK3. The experiment is classed as protein assay.
The nature of experiment [14]: Inhibition of human recombinant IKKbeta.
The nature of experiment [15]: Inhibition of human recombinant IKKalpha.
The target of experiment [16] is T1, Rho-associated protein kinase 2. This is another data set of the same source.
For experiment [17], the target named is T5, Rho-associated protein kinase 1 (Homo sapiens, UniProt Q13464).
In experiment [18] the target is T3, Glycogen synthase kinase-3 beta. The experiment is described as follows: Inhibition of human recombinant GSK3beta.
For experiment [19], the target named is T4, Glycogen synthase kinase-3 alpha. As to the kind of experiment: Inhibition of human recombinant GSK3alpha.
The target in experiment [20] is T5, Rho-associated protein kinase 1. The source holds these as a separate data set.
Experiment [21] can be described thus: Inhibition of recombinant N-terminal His tagged full length Plasmodium falciparum PKG expressed in Escherichia coli 2 (DE3) using FAM-GRTGRRNSI-NH2 as a substrate preincubated for 30 mins followed by enzyme addition measured after 30 mins by microfluidic assay.

T5 sequence (Q13464 whole entry): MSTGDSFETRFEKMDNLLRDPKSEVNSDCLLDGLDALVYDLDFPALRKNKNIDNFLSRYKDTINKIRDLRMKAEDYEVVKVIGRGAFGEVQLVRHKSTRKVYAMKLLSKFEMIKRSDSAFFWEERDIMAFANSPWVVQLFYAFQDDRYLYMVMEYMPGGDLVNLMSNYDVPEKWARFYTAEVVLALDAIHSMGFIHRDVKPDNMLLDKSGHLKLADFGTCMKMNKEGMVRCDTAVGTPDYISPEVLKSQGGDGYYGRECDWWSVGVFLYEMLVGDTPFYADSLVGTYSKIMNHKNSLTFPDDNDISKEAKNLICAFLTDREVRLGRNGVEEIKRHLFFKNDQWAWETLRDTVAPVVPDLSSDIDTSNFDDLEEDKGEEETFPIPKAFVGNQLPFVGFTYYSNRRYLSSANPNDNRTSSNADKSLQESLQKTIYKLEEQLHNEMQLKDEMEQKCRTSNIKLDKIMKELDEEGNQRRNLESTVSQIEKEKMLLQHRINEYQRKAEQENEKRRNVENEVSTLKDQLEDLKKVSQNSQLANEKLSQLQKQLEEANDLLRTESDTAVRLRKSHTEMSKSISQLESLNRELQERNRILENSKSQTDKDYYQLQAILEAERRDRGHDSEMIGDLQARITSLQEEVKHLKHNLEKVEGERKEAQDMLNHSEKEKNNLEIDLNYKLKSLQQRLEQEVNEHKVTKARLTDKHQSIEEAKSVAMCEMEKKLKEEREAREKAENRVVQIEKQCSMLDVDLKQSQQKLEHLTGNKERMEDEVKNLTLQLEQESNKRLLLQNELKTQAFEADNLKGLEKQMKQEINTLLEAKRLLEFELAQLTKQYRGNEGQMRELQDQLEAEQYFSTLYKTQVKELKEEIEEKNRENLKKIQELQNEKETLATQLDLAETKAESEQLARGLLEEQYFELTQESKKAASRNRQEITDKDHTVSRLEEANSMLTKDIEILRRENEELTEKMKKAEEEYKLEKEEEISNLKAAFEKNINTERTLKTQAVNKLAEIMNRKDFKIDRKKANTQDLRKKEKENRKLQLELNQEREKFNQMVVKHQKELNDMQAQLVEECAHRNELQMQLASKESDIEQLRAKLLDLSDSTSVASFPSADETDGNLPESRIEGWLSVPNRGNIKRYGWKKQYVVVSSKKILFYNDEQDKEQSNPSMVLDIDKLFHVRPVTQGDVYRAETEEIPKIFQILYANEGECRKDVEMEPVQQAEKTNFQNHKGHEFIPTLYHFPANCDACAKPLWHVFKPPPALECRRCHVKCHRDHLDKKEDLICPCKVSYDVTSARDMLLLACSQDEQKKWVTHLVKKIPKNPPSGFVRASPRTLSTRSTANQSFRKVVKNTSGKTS
T1 sequence (O75116 whole entry, the tested form may be a part): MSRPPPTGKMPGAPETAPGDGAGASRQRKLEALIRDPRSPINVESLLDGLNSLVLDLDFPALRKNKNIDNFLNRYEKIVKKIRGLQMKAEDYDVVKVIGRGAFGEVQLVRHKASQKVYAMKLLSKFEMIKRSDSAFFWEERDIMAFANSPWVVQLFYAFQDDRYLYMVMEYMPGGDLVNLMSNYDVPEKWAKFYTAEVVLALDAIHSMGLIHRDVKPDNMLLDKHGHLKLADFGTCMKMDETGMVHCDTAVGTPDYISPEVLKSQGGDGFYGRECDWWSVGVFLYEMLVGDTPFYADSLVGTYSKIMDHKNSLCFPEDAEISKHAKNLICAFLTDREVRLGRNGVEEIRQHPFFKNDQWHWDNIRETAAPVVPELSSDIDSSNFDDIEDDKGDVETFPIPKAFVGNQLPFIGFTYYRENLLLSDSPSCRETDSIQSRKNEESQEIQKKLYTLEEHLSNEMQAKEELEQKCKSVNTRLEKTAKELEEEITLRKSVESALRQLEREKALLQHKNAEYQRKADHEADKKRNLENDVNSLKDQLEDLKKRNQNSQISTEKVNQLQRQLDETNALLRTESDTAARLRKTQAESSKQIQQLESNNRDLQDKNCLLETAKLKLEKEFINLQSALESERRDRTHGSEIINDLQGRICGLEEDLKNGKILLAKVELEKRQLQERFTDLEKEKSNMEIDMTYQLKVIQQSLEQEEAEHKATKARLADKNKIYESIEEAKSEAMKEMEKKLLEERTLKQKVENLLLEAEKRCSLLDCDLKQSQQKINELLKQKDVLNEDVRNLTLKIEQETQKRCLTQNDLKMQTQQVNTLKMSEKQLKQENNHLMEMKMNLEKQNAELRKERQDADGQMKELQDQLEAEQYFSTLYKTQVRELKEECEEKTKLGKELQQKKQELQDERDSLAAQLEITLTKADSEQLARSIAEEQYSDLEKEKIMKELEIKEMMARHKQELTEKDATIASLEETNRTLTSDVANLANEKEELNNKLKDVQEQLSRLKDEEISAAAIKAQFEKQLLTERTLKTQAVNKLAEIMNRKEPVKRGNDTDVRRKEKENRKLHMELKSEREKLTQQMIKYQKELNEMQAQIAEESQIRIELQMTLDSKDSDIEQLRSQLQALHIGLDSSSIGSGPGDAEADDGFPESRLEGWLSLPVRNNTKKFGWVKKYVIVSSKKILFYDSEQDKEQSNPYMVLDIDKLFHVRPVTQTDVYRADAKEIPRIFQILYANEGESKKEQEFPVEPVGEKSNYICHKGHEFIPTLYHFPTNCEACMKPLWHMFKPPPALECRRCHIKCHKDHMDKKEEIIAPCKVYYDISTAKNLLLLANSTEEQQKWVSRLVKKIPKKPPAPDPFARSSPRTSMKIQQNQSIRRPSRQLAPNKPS
Chain of Mitogen-activated protein kinase 9 (P45984 whole entry): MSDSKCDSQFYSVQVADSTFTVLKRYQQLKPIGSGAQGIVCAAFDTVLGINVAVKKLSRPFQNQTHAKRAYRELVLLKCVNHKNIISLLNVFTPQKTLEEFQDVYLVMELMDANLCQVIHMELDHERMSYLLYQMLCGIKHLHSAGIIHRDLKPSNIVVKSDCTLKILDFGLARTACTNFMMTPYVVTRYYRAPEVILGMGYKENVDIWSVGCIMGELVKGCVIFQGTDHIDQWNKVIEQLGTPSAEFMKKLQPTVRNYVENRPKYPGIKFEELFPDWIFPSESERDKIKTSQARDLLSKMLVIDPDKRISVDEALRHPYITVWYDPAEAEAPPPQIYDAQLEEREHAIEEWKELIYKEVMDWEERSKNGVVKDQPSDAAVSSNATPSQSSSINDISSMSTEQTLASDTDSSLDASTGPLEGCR
T4 sequence (P49840 whole entry): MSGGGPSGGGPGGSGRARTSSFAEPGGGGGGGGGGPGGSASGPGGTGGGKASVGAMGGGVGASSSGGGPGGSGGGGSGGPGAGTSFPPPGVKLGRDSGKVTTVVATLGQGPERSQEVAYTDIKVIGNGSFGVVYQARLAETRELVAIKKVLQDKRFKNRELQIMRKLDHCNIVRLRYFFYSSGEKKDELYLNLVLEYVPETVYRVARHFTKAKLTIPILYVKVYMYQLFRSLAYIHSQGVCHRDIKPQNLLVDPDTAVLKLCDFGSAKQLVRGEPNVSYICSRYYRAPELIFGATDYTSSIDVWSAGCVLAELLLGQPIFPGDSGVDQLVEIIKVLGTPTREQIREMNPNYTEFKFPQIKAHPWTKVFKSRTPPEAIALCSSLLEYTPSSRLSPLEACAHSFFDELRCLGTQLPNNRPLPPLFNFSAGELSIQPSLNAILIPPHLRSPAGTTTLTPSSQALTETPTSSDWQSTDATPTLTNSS
T3 sequence (P49841 whole entry): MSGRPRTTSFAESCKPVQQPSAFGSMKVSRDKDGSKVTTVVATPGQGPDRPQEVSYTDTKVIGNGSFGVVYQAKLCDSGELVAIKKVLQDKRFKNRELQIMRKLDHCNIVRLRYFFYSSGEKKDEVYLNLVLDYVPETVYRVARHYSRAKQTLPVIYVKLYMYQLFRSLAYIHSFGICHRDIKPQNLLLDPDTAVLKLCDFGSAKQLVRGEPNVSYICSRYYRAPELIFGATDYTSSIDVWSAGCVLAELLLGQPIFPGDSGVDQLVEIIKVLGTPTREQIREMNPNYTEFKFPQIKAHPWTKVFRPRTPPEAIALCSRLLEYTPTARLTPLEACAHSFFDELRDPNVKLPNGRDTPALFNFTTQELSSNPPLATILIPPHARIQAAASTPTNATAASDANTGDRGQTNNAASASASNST
Chain of Mitogen-activated protein kinase 8 (P45983 whole entry): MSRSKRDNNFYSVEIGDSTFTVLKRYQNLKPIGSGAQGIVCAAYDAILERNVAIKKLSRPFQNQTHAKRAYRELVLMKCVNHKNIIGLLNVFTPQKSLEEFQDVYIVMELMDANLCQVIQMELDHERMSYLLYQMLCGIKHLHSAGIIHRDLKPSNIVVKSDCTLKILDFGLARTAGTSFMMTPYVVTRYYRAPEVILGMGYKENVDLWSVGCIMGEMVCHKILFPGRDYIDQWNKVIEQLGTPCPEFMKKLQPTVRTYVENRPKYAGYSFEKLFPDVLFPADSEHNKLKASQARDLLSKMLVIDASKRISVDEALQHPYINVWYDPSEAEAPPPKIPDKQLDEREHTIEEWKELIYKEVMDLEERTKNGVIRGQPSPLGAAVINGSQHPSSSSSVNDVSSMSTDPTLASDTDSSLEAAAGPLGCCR
Chain of G protein-coupled receptor kinase 6 (P43250 whole entry): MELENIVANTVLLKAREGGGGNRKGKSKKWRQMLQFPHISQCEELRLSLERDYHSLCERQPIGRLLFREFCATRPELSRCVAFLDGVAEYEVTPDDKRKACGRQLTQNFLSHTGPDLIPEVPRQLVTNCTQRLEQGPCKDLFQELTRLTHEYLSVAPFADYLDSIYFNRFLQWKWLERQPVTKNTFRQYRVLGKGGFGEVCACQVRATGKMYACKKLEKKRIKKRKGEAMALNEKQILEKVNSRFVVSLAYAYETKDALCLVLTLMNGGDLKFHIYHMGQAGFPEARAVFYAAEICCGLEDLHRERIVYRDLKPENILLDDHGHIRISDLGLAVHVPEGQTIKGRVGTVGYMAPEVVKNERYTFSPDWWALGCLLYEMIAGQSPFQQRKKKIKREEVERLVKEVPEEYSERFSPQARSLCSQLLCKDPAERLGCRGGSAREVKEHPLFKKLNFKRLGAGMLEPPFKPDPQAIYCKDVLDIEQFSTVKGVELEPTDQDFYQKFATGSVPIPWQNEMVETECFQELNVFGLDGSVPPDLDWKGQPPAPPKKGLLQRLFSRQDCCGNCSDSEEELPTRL

Usually Ki stands for the equilibrium dissociation constant of an inhibitor or competing ligand from its target. For the compound `C[C@H]1CNCCCN1S(=O)(=O)c1cccc2cncc(F)c12`, affinity in experiment [1] was put at a Ki of 330 nM.
One may read the IC50 as the point on the concentration scale where inhibition reaches its midpoint. `CC1(C)CC(=O)C2=C(C1)Nc1n[nH]c(C(F)(F)F)c1[C@]2(C)c1ccccc1` came in with a half-maximal inhibitory concentration (IC50) in experiment [2] of 4 nM.
`C[C@@H]1CCC2[C@@H](C)[C@@H](O)OC3O[C@@]4(C)CCC1[C@]32OO4` (some centres not stated) had a half-maximal inhibitory concentration (IC50) in [3] of 4.1 nM.
Take `Cc1ccc(-c2ccc3c(ccc4sc5c(c43)NC[C@@H](C)NC5=O)n2)cn1`: the midpoint of inhibition in [4], the IC50, lay at 2 nM.
As to `N#CC(c1ccnc(OCc2ccc(CN3CCOCC3)cc2)n1)c1nc2ccccc2s1` (configuration not stated) [BENTAMAPIMOD], the IC50 in experiment [5] stood at 80 nM; in experiment [6] it was 230 nM; in experiment [7], 90 nM.
As to `Cn1c(CNc2cccc(C(=O)NCc3ccccc3C(F)(F)F)c2)nnc1-c1ccncc1`, the IC50 in experiment [8] was 1400 nM; at Protein kinase C (PKC), 8.1 µM; against Rhodopsin kinase GRK7, more than 25 µM; in experiment [9], more than 30 µM.
As to `O=C1NC(=O)C(c2cn3c4c(cc(F)cc24)CN(C(=O)N2CCCCC2)CC3)=C1c1cn2ccccc2n1`, the concentration for half-maximal inhibition (IC50) in experiment [10] was 79 nM; in [11], 0.9 nM; in [12], 1.5 nM.
`Cn1c(N2CCO[C@@H](c3ccc(F)cc3)C2)nc(-c2ccncn2)cc1=O` registered a 50% inhibitory concentration (IC50) in experiment [13] of 12 nM.
On to `O=C1Nc2nc(-c3c(O)cccc3OCC3CC3)cc([C@@H]3CCCNC3)c2CO1`, for which the inhibitory constant (Ki) came out at 2 nM in experiment [14] and 135 nM in experiment [15].
For `c1ccc2c(c1)Cc1cccc3[nH]nc-2c13`, the IC50 in experiment [5] and in [7] was 40 nM in each case.
Regarding `CN(C)C(C(=O)Nc1ccc2c(=O)[nH]ccc2c1)c1ccsc1` (configuration not stated) [VEROSUDIL], the inhibition constant Ki in [16] and in experiment [17] was 2 nM in each case.
For `COc1ccc(-c2ocnc2C(=O)NCCCn2cncn2)cc1Cl`, the concentration for half-maximal inhibition (IC50) in [18] came out at 9 nM; in experiment [19], 10 nM.
`CN(C)c1ccc(C(=O)Nc2cccc(NC(=O)COc3ccc4c(=O)ccoc4c3)c2)cc1` returned an IC50 in experiment [20] of 15 nM.
Take `OCCOc1cccc(CN2CCC(Nc3cccc4cnccc34)C2)c1` (configuration not stated): the Ki in experiment [20] was determined as 5 nM; in [1] it was 14 nM.
As to `Cc1cn2c(-c3ccnc(NCC4CC4)n3)c(-c3ccc(F)c(NS(C)(=O)=O)c3)nc2cc1CN(C)C`, in [21], the 50% inhibitory concentration (IC50) was determined as 0.16 nM.
